# Data taken from the pKa sets of Baltruschat and Czodrowski (2020).
row,SMILES,pKa
1,O=C(Nc1ccc(F)c(Cl)c1)C1CCN(c2ncccn2)CC1,3.8
2,Nc1ccc(-c2cc3ccccc3oc2=O)cc1,3.9
3,O=C(Nc1nnc(-c2cccs2)o1)c1cccc(C(F)(F)F)c1,5.7
4,N#Cc1c(-c2ccccc2)nc(SCc2ccccc2)[nH]c1=O,4.5
5,Nc1n[nH]c2cc(Br)ccc12,2.9
6,Cc1ccc(OC(C)(C)C(=O)N[C@@H](C)[C@@H](Cc2ccc(OCCF)cc2)c2cccc(C#N)c2)nc1,2.7
7,O=C(CSc1nccn1C1CCCC1)Nc1ccc(C(F)(F)F)cc1,5.1
8,CNC(=O)c1ccc(Oc2ccc3c(c2)CC[NH+](C2CCC2)CC3)nc1,8.6
9,COC(=O)Cn1c(C[NH+]2CCC(Cc3ccccc3)CC2)nc2c1c(=O)n(C)c(=O)n2C,6
10,COc1ccc(N)c2ccccc12,4.9
11,Cc1[nH]c2ccccc2c1CC[NH2+]Cc1ccc(CCC(=O)N=O)cc1,8.6
12,CC(C(=O)[O-])c1ccc2c(c1)C(=O)c1ccccc1CS2 (stereo not given),4.1
13,N#Cc1csc(NC(=O)Nc2ccc(Cl)c(Cl)c2)n1,8.3
14,CCc1ccc(/C=C2/SC(=S)[N-]C2=O)cc1,5.8
15,O=C([O-])COc1ccc2c(c1)Cc1ccccc1-2,3
16,Cc1cc(C)nc(N2CCC3(CCCN(Cc4ccccc4-c4nc(C)no4)C3=O)CC2)n1,4.8
17,CN1C(=O)Cn2cc(C(=O)NCc3ccc(Cl)cc3)c(=O)c3cc(C[NH+]4CCOCC4)cc1c32,6.2
18,N#Cc1cc(C[NH+]2CCC(Nc3ncnc4sc(Cl)cc34)CC2)ccc1F,7
19,CCNC(=O)OC1CCN(c2nncc3cc(OC)c(OC)cc23)CC1,5.4
20,c1ccc(-c2nc3n(c2-c2ccccc2)CCS3)cc1,4.8
21,Cc1ccc2c(c1)C(=O)C(=O)N2,9.8
22,CC(C(=O)[O-])c1ccc2c(c1)Cc1ccccc1-2 (stereo not given),4.3
23,COC(=O)/C=C/C(=O)[O-],2.9
24,O=C(Nc1ccccc1C(=O)[O-])c1ccc(-c2ccccc2)cc1,3.2
25,O=c1cc(CSc2cccc(F)c2F)nc2cc[nH]n12,7.35

row,SMILES,pKa
1,Ic1cccc(-c2nn[n-]n2)c1,3.7
2,CCc1ncnc(NC(CC)c2ccc(Oc3ccc(F)cc3)cc2)c1Br (stereo not given),4.3
3,COc1ccc2c(c1)C[NH+](C)CCS2,7.5
4,CCc1ccc(-c2cn3c([nH+]2)SCC3)cc1,4.8
5,NC(=O)c1ccc(-c2cc(-c3ccccc3)cnc2N)cc1,5.4
6,COCc1nc2ccccc2n1Cc1ccc(C(C)(C)C)cc1,4.2
7,C1=CN2CC(c3ccccc3)[NH+]=C2S1 (stereo not given),8.7
8,C1=C(c2ccccc2)N2CC[NH+]=C2c2ccccc21,10.3
9,O=C([O-])c1ccc(NCc2cccc(Oc3ccccc3)c2)cn1,4.45
10,CCS(=O)(=O)c1ccc(CC(=O)Nc2nc(-c3ccccc3)c(C(=O)c3ccccc3)s2)cc1,7.9
11,Fc1cccc(-c2c[nH]c3ncccc23)c1,4.1
12,O=C(Nc1nnc(-c2ccc(F)cc2)o1)c1ccc(Cl)s1,5.8
13,O=C(NO)C1c2ccccc2Oc2ccccc21,8.4
14,COc1cccc(-c2cnc(N)c(-c3ccc(C(N)=O)cc3)c2)c1,5.3
15,c1ccc(Nc2ncc3ccccc3n2)cc1,3.6
16,Cc1cc(C)c2cc(C(=O)NC3CC[NH+](C)CC3)[nH]c2c1,8.5
17,c1ccc(N2CC[NH2+]CC2)cc1,9
18,O=C(Nc1cccc(Cl)c1)c1ccc(Cl)cc1O,6.3
19,O=C(Nc1ccccc1C(=O)[O-])c1cccc(Oc2ccccc2)c1,3.3
20,Cc1ccc(C)n1-c1ccc(SCC(=O)[O-])cc1,3.5
21,Cc1cc(C)nc(N2CCC3(CCCN(Cc4nn(C)nc4-c4ccccc4)C3=O)CC2)n1,4.7
22,O=C1N(Cc2c[nH]c3ccccc23)CCCC12CCN(c1cnc3ccccc3n1)CC2,3.9
23,Nc1cccc2c1C(=O)N(C1CCC(=O)NC1=O)C2=O (stereo not given),10.8
24,O=C1CCCC2(CCN(c3cnc4ccccc4n3)CC2)N1Cc1c[nH]c2ccccc12,3.3
25,Cc1csc2ccc3[nH]c4c(c3c12)C[NH+](C)CC4,8.6

row,SMILES,pKa
1,COc1cccc(-c2cccc(CCC3(C)CC(=O)N(C)C(N)=[NH+]3)c2)c1 (stereo not given),9.4
2,Cc1nc(C#Cc2ccnc(Cl)c2)c(C)n1-c1ccc(F)cc1,4.35
3,O=S(=O)(Nc1cc(F)ccc1F)c1ccc2[nH]c3c(c2c1)CCCC3,7.3
4,Cc1cc(C)nc(N2CCC3(CCCN(Cc4nn(C)cc4-c4ccccc4)C3=O)CC2)n1,4.75
5,O=C1CCCC2(CCN(c3cnc4ccccc4n3)CC2)N1Cc1ccccc1,3.3
6,O=c1[nH]c2ccccc2c(=O)n1CCCl,10
7,O=C1CN(c2ccccc2)C(=O)N1,8.3
8,O=c1[nH]c2cc(-c3ccc(F)cc3)ccc2cc1[O-],8.1
9,COc1ccc(-c2nc(Nc3ccc(F)cc3F)c3ccccc3n2)cc1OC,5.2
10,COc1ccc(N2CCOCC2)c2sc(NC(=O)N3CCC(C)(O)CC3)nc12,9.4
11,Cc1cc(C)nc(N2CCC3(CCCN(Cc4cn(C)c5ccccc45)C3=O)CC2)n1,4.7
12,O=C1N(Cc2c[nH]c3ccccc23)CCCC12CCN(c1ncccn1)CC2,3.8
13,CNC(=O)c1nc(-c2ccc(Cl)c(S(=O)(=O)Nc3cccc(F)c3C)c2)cnc1N,7.6
14,O=S(=O)(c1ccccc1)n1cc(-c2cccc3nccn23)c2ccccc21,6.4
15,COc1ccc(NS(=O)(=O)c2ccc(-n3cccn3)cc2)cc1OC,8.3
16,O=C(Nc1nccs1)C(CC1CCCC1)c1ccc(Cl)cc1 (stereo not given),10.5
17,C[NH+](C)CCSc1nc2ccccc2cc1-c1ccccc1,8.4
18,COc1ccc(-c2cnc3c(-c4cccc5ncccc45)cnn3c2)cc1,4.4
19,CCc1ccccc1N(CC)C(=O)C1CCN(c2ncnc3c2nc2n3CCCCC2)CC1,3.9
20,CC(=O)Nc1cccc(Nc2nc(Nc3ccccc3)n3ncc(C#N)c3n2)c1,9.7
21,N#Cc1ccc2ccn(-c3ccnc(N)n3)c2c1,4.6
22,CC(=O)n1cc(C2=C([O-])CC(C)(C)CC2=O)c2ccccc21,5.2
23,c1ccc(Nc2nc(NC3CCCCC3)nc3ccccc23)cc1,8
24,COc1cc2c(cc1OC)CN(c1cc(N)c3cc(OC)c(OC)cc3[nH+]1)CC2,8.9
25,COc1ccc(/C=C/C(=O)N2CCN(c3ccccn3)CC2)cc1,5.3

row,SMILES,pKa
1,Cc1ccc(C)n1-c1ccc(C(=O)[O-])c(O)c1,2.3
2,COc1cccc(-c2nnc3n(Cc4ccccc4Cl)c(=O)c4ccccc4n23)c1O,8.4
3,CC(C)Nc1nc(Nc2ccc(C(N)=O)cc2)c2sccc2n1,6.3
4,Nc1ncnc2ccc(-c3ccnc(F)c3)nc12,4.5
5,CCOC(=O)N1CCC(C)(C[NH+]2CCC3(CC2)CN(S(C)(=O)=O)c2ncccc23)CC1,8.5
6,CS(=O)(=O)c1ccc(-c2cnc(N)c(-c3ccc(C(F)(F)F)nc3)c2)cc1,4.8
7,COc1cccc2[nH]cc(-c3ccnc(N)n3)c12,5.52
8,Fc1ccccc1C1=Cc2ccccc2C2=[NH+]CCN12,10.2
9,N#Cc1cccc(Nc2ccccc2C(=O)[O-])c1,3.9
10,N#Cc1c(-c2ccc(Cl)cc2)nc(SCC(=O)Nc2ccc(Cl)cc2)[nH]c1=O,3.7
11,Cc1ccc2nc(N)ccc2c1,7.6
12,O=c1ccc2nc3ccc(O)cc3oc-2c1,5.8
13,Cc1csc2ncnc(NCCc3ccc(Cl)cc3)c12,3.9
14,O=C(NO)C1c2ccccc2-c2ccccc21,8.7
15,N#Cc1ccc2[nH]cc(-c3ccnc(N)n3)c2c1,5.3
16,c1ccc(-c2cnc3c(-c4ccnc5ccccc45)cnn3c2)cc1,4.9
17,CS(=O)(=O)c1ccc(-c2cnc(N)c(-c3ccc(C(F)(F)F)cc3)c2)cc1,4.9
18,O=C(Nc1cccc(Cl)c1)c1ccccc1O,7.2
19,Cc1nc2ccccn2c1C(=O)NCc1ccc(Cl)cc1,5.1
20,COC(=O)c1ccc2[nH]cc(CN3CCCC4(CCN(c5nc(C)cc(C)n5)CC4)C3=O)c2c1,4.8
21,COc1ccc(CNC(=O)c2c(C)nc3ccccn23)cc1,5
22,C1=C(c2ccc3ccccc3c2)N2CC[NH+]=C2c2ccccc21,10.2
23,N#Cc1cnc(NC(=O)Nc2ccc(Cl)c(Cl)c2)s1,7.5
24,COc1ccc(Br)c(C=O)c1O,7.5
25,O=C(Cc1ccccc1)N1CCCC12CCN(c1cnc3ccccc3n1)CC2,3.6

row,SMILES,pKa
1,O=C(/C=C/c1ccc(Br)cc1)N1CC[NH+](Cc2ccccc2)CC1,6.1
2,O=c1[nH]c2ccc(-c3ccc(F)cc3)cc2cc1[O-],8.2
3,O=C(Nc1ccc(Cl)cc1)NS(=O)(=O)c1ccc(Cl)cc1,3.4
4,O=C1N(Cc2ccccc2)CCCC12CCN(c1cnc3ccccc3n1)CC2,3.6
5,C=CC(=O)Nc1cccc(Nc2nc(Nc3ccc(OCCOC)cc3)ncc2F)c1,4.8
6,Cc1ccc(NC(=O)c2cccc(C(C)(C)C#N)c2)cc1Nc1ccc2ncn(C)c(=O)c2c1,3.6
7,O=Cc1cc(Br)cc(Br)c1O,5.3
8,CCC1(c2ccccc2)C(=O)NC(=O)N(C)C1=O (stereo not given),7.6
9,Cc1nc(C(=O)[O-])ccc1N(C)Cc1cccc(Cl)c1,4.45
10,Clc1ccc2c(c1)[NH+]=C(N1CCCCC1)c1ccccc1N2,7.2
11,COc1ccc(C2=C([O-])c3ccccc3C2=O)cc1,4.1
12,O=C(NCc1ccc(Cl)cc1)c1cn2c(CCO)cc3cc(C[NH+]4CCOCC4)cc(c1=O)c32,5.9
13,Nc1nc(-c2ccccc2)cc2ccccc12,6.9
14,COc1ccc2nccc(-n3cc4c(n3)CCC(NC(=O)c3ccc5c(c3)NC(=O)CS5)C4)c2n1 (stereo not given),3.8
15,C[C@H](C#Cc1ccc(Cc2ccc(F)cc2)s1)N(O)C(N)=O,10.4
16,O=C(NC(=O)c1ccccc1)c1ccccc1,9.9
17,Cc1cc(N)nc2ccccc12,7.9
18,O=C1CCN(Cc2ccccc2)C(=O)N1,11.7
19,CCc1cc(Br)ccc1S(=O)(=O)NCc1ccccc1,10.6
20,CCN(CC)c1ncnc2c1cnn2C,4.2
21,Cc1ccc(NC(=O)c2ccccc2)cc1Nc1nccc(-c2cccnc2)n1,3.9
22,Cc1nc(-c2ccc(OCC(C)C)c(C#N)c2)sc1C(=O)[O-],4
23,NC(=O)c1cccc(-c2cc(Nc3ccc(OC(F)(F)F)cc3)ncn2)c1,4
24,COc1ccccc1S(=O)(=O)Nc1ccc2c(c1)CN(C)C(=O)N2,8.65
25,COc1cc(Nc2ccccc2C(=O)[O-])cc(OC)c1,4
